Q: With CCN(C)C=Nc1cc(OC)c(Oc2ccccc2)cc1C as the compound, how does the melting point read?
A: The melting point was 59 to 60 °C.

From patent publication US20200205406A1, “MICROBIOCIDAL PHENYLAMIDINE DERIVATIVES WITH IMPROVED PLANT SAFETY PROPERTIES” (SYNGENTA PARTICIPATIONS AG, priority 2017, published 2020)
